According to ChEMBL document CHEMBL1201862, “PubChem BioAssay data set” (2004):
The source made the active and inactive calls. Cut-off read from the data, not from the text of the source, for most assays here: actives have a measured EC50 and inactives only a lower limit.

Experiments:
[1] = cells; assay type: functional, cell-based
[2] = cells; assay type: functional, cell-based; remark: listed apart in the source
[3] = target: T1, Corticotropin-releasing factor receptor 2/Corticotropin-releasing factor-binding protein (Homo sapiens, UniProt P24387+Q13324); assay: Dose Response confirmation of uHTS hits for small molecule antagonists of the CRF-binding protein and CRF-R2 receptor complex.; assay type: functional; settings: read-out: IC50_Mean
T1 sequence (Q13324 whole entry): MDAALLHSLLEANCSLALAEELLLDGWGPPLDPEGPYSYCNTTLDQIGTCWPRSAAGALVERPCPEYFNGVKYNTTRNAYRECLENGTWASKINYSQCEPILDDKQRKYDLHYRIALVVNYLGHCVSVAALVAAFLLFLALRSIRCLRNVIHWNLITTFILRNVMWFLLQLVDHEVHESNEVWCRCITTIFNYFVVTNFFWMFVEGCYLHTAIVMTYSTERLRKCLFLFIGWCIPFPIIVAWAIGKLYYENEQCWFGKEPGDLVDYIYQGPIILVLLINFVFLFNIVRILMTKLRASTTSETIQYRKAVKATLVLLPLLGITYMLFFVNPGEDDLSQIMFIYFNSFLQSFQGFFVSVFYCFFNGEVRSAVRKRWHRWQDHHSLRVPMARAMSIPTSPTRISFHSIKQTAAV
T1 sequence (P24387 whole entry): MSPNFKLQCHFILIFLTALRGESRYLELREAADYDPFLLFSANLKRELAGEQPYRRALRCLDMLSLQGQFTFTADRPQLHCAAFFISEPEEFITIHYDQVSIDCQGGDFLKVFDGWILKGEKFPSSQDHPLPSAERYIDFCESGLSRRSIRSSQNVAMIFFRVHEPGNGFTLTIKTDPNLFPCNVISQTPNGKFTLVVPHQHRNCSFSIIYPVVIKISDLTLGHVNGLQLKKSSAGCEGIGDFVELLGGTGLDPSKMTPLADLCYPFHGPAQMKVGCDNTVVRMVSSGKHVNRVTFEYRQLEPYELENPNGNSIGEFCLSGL

[4] = target: T1, Corticotropin-releasing factor receptor 2/Corticotropin-releasing factor-binding protein; assay: activators of CRF receptor 2 with binding protein – uHTS hits, confirmation (AID 602473); assay type: functional; settings: read-out: EC50_Mean
[5] = target: T2, RNA-binding protein pos-1 (Caenorhabditis elegans, UniProt G5EF15); assay: inhibitors of POS-1/mex-3 RNA binding, dose response, biochemical, fluorescence polarization (AID 1964);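 note: purified POS-1 fused to maltose binding protein made in E. coli; potency of compounds blocking POS-1 binding to fluorescent RNA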
T2 sequence (G5EF15 whole entry): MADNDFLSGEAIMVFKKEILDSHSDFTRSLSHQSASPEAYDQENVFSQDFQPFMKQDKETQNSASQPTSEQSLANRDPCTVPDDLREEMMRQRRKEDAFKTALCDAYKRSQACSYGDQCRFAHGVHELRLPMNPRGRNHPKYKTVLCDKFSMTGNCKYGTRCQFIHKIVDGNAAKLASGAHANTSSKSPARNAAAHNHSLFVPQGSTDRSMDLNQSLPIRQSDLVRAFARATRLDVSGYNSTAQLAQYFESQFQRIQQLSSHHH

[6] = target: T3, Zinc finger protein mex-5 (Caenorhabditis elegans, UniProt Q9XUB2); assay: MEX-5/TCR-2 RNA interaction inhibitors, dose response, biochemical, C. elegans, fluorescence polarization (AID 1960)
T3 sequence (Q9XUB2 whole entry): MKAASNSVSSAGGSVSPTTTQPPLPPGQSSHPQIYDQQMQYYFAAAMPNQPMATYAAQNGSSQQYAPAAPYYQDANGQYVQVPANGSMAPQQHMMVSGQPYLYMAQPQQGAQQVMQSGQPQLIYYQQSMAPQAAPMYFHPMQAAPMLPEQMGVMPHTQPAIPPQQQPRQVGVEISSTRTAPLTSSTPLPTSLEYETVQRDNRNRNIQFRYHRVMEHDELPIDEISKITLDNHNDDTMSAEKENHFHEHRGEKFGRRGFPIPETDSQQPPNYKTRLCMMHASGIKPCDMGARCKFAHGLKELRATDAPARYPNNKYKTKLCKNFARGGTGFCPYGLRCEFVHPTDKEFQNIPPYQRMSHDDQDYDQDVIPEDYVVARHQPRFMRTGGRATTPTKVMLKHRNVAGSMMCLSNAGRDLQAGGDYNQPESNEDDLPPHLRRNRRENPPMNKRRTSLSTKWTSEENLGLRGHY

[7] = target: T4, Rac GTPase-activating protein 1 (Homo sapiens, UniProt Q9H0H5); assay: MgcRacGAP GTPase-activating activity inhibitors, confirmation, biochemical, ADP Hunter fluorescence, primary and confirmatory (AID 624330); assay type: functional
T4 sequence (Q9H0H5 whole entry): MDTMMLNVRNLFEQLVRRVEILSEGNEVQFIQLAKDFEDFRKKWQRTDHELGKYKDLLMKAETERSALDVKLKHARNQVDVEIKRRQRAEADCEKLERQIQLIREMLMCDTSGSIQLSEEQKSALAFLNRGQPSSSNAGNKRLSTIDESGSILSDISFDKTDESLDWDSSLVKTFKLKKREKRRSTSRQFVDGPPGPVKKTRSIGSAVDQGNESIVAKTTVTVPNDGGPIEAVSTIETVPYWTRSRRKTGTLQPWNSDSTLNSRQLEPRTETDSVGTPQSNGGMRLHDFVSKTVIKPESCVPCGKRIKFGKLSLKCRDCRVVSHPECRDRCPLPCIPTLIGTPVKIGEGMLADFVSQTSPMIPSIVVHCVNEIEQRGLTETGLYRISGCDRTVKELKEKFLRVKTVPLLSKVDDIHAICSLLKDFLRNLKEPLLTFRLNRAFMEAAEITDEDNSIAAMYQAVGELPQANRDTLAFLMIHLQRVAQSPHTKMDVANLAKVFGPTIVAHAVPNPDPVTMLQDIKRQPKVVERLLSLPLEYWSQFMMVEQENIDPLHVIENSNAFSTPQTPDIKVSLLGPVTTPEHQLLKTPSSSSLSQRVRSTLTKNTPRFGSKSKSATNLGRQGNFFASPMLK

[8] = target: T5, Heat shock factor protein 1 (Mus musculus, UniProt P38532); assay: inhibition of MG132-induced HSE-luciferase signal, confirmation, cell-based, NIH3T3, luminescence, dose retest (AID 2382); assay type: functional;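 note: NIH3T3 fibroblasts with HSF1-driven luciferase reporter stressed by proteasome inhibitor MG132; luminescence from HSF1-driven luciferase expression after 8 hours of MG132 stress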
T5 sequence (P38532 whole entry): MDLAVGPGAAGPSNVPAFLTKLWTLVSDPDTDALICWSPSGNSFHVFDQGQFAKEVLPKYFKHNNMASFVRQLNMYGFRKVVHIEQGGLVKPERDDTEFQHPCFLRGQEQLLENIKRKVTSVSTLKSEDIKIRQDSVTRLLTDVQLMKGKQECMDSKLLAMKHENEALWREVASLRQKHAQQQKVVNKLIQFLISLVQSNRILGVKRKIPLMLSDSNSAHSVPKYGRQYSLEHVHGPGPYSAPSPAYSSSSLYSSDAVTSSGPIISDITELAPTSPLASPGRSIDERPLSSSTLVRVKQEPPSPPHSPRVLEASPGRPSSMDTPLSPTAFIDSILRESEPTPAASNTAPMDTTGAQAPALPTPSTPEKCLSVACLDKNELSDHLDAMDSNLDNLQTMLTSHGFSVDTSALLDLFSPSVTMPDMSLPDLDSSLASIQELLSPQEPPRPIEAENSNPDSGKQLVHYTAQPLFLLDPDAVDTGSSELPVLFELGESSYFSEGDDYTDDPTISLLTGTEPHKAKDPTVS

Structure (SMILES): CCN(CC)CCNC1=CC(=O)OC12CCCCC2
- EC50 [1]: > 350 µM (not active)
- EC50 [2]: > 350 µM (not active)

Structure (SMILES): Cn1c(CCNC(=O)c2ccco2)nc2cc(NC(=O)c3ccco3)ccc21
- IC50 [3]: > 47.1 µM (inactive)
- EC50 [4]: > 53 µM (inactive)

Structure (SMILES): COC(=O)C12CCc3c(ccc4cc(OC)ccc34)C1=CC(=O)C2 (centres undefined)
- IC50 [3]: > 47.1 µM (inactive)
- EC50 [4]: > 53 µM (inactive)

Structure (SMILES): Cn1cc(S(=O)(=O)Nc2ccc(Br)cc2F)c(=O)n(C)c1=O
- IC50 [3]: > 47.1 µM (inactive)
- EC50 [4]: > 53 µM (inactive)

Structure (SMILES): Cc1ccccc1-c1nc2ccccc2c(=O)n1/N=C/c1ccccc1[N+](=O)[O-]
- EC50 [1]: > 350 µM (not active)
- EC50 [2]: > 350 µM (not active)

Structure (SMILES): O=C(O)C(=O)/C(=C\c1ccc(Cl)cc1)c1ccc2ccccc2n1
- EC50 [5]: > 300 µM (not active)
- EC50 [6]: > 300 µM (not active)

Structure (SMILES): COc1cccc(CNc2ccc3c(c2)ncn3C)c1OC
- IC50 [7]: 99.4 µM (active)

Structure (SMILES): COC(=O)c1ccccc1-n1cccc1C(=O)NP(=O)(N1CCOCC1)N1CCOCC1
- EC50 [5]: > 300 µM (not active)
- EC50 [6]: > 300 µM (not active)

Structure (SMILES): O=C(O)C1=C[C@@H](c2ccc(Br)cc2)C[C@@H](OCc2ccc(CO)cc2)O1
- IC50 [3]: > 47.1 µM (inactive)
- EC50 [4]: > 53 µM (inactive)

Structure (SMILES): COc1ccc(CC(=O)N2CCN(C(=O)Cc3ccc(OC)cc3)CC2)cc1
- EC50 [1]: > 350 µM (not active)
- EC50 [2]: > 350 µM (not active)

Structure (SMILES): CC1(C)CC2CC(C)(CN2/C=C2/CCCCC2=O)C1 (centres undefined)
- IC50 [3]: > 47.1 µM (inactive)
- EC50 [4]: > 53 µM (inactive)

Structure (SMILES): COc1ccc(-c2cccc(NS(=O)(=O)c3cccc([N+](=O)[O-])c3)c2)nn1
- IC50 [3]: > 47.1 µM (inactive)
- EC50 [4]: > 53 µM (inactive)

Structure (SMILES): O=C(NN1C(=O)c2ccccc2NC1c1ccccn1)c1ccc([N+](=O)[O-])cc1 (centres undefined)
- EC50 [5]: 198 µM (active)
- EC50 [6]: 8.55 µM (active)

Structure (SMILES): COc1ccc(N(CC(=O)Nc2cc(OC)ccc2OC)S(=O)(=O)c2c(C)noc2C)cc1
- EC50 [1]: > 350 µM (not active)
- EC50 [2]: > 350 µM (not active)

Structure (SMILES): CC(=O)N1CCc2c(sc(NC(=O)C3CCCCC3)c2C(N)=O)C1
- EC50 [5]: 33.4 µM (active)
- EC50 [6]: 30.1 µM (active)

Structure (SMILES): Cc1cc(C)nc(NNC2=CC(=O)CC(C)(C)C2)n1
- EC50 [5]: 84.6 µM (active)
- EC50 [6]: 10.9 µM (active)

Structure (SMILES): Oc1ccc(C2=CSC3=NCCN23)cc1O
- EC50 [5]: 70.6 µM (active)
- EC50 [6]: 18.6 µM (active)

Structure (SMILES): N=c1c(C(=O)NC2CCCC2)cc2c(=O)n3ccccc3nc2n1Cc1ccccc1
- EC50 [5]: 31.6 µM (active)
- EC50 [6]: 41.3 µM (active)
- EC50 [8]: > 195 µM (not active)

Structure (SMILES): COc1ccc(-n2c(NNC(C)=O)nc3sc4c(c3c2=O)CCCC4)cc1
- EC50 [5]: > 300 µM (not active)
- EC50 [6]: > 300 µM (not active)

Structure (SMILES): CN(c1ccc(O)cc1)c1nc(-c2cccs2)cs1
- IC50 [7]: 70.4 µM (active)

Structure (SMILES): Cc1nnc(-c2ccccc2)nc1N(C)C
- EC50 [1]: > 350 µM (not active)
- EC50 [2]: > 350 µM (not active)

Structure (SMILES): CN1CCCN(Cc2ccccc2C(F)(F)F)CC1
- IC50 [7]: 83.3 µM (active)

Structure (SMILES): COc1cc(/C=C/C(=O)OCC(=O)N2CC3(C)CC2CC(C)(C)C3)ccc1O (centres undefined)
- IC50 [7]: 49.6 µM (active)

Structure (SMILES): Cc1cccc(C(=O)OC(C)CN2CCCC2)c1 (centres undefined)
- EC50 [1]: > 350 µM (not active)
- EC50 [2]: > 350 µM (not active)

Structure (SMILES): CCOc1ccc(CN2CCN(S(=O)(=O)c3ccc(NC(C)=O)cc3)CC2)cc1
- IC50 [7]: 221 µM (active)

Structure (SMILES): COc1ccc(C2CC(c3ccc(Br)cc3)=NN2C(=O)CCC(=O)O)cc1OC (centres undefined)
- IC50 [3]: > 47.1 µM (inactive)
- EC50 [4]: > 53 µM (inactive)

Structure (SMILES): CCOc1cc(/C=N/NC(=O)NN(C)c2ncc(C(F)(F)F)cc2Cl)ccc1O
- IC50 [7]: 88.4 µM (active)

Structure (SMILES): CCc1ccccc1N=C(S)NCC1CCN(c2ccc(OC)cc2)C1 (centres undefined)
- IC50 [7]: 43.3 µM (active)

Structure (SMILES): O=C(O)CCC(=O)Nc1ccc(Br)c(Cl)c1
- IC50 [3]: < 0.368 µM (active)
- EC50 [4]: > 53 µM (inactive)

Structure (SMILES): Cc1ccccc1NC(=O)c1ccccc1O
- EC50 [1]: 50.3 µM (active)
- EC50 [2]: > 350 µM (not active)
